Measured values published in ChEMBL document CHEMBL1201862, “PubChem BioAssay data set” (2004).
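A five-concentration, 48-hour dose response in 96-well plates underlies each endpoint, interpolated linearly between surrounding concentrations. GI50 is the concentration that inhibits growth by half.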 Activity calls are given as the source filed them. No stated cut-off is given here; in the data, active = GI50 up to about 1.1 µM and inactive = higher.

Assays:
Assay in all cases: NCI-60 cell line screen, 48 h
MDA-MB-435 = system: MDA-MB-435
PC-3 = system: PC-3
NCI/ADR-RES = system: NCI/ADR-RES
SR = system: SR
HCT-15 = system: HCT-15
OVCAR-5 = system: OVCAR-5
U-251 = system: U-251
SK-MEL-5 = system: SK-MEL-5
HCT-116 = system: HCT-116
MDA-MB-231 = system: MDA-MB-231
SNB-75 = system: SNB-75
DU-145 = system: DU-145
NCI-H460 = system: NCI-H460
ACHN = system: ACHN
SNB-19 = system: SNB-19
HCC 2998 = system: HCC 2998
NCI-H226 = system: NCI-H226
CAKI-1 = system: CAKI-1
SK-OV-3 = system: SK-OV-3
UO-31 = system: UO-31
IGROV-1 = system: IGROV-1
SF-539 = system: SF-539
MDA-N = system: MDA-N
OVCAR-8 = system: OVCAR-8
OVCAR-4 = system: OVCAR-4
UACC-257 = system: UACC-257
EKVX = system: EKVX
NCI-H23 = system: NCI-H23
HOP-62 = system: HOP-62
HL-60 = system: HL-60
NCI-H522 = system: NCI-H522
M14 = system: M14
LOX IMVI = system: LOX IMVI
786-0 = system: 786-0
A549 = system: A549
SW-620 = system: SW-620
HT-29 = system: HT-29
Hs-578T = system: Hs-578T
SN12C = system: SN12C
SK-MEL-2 = system: SK-MEL-2
TK-10 = system: TK-10
CCRF-CEM = system: CCRF-CEM
KM12 = system: KM12
HOP-92 = system: HOP-92
MCF7 = system: MCF7
RPMI-8226 = system: RPMI-8226
K562 = system: K562
SK-MEL-28 = system: SK-MEL-28
T47D = system: T47D
SF-268 = system: SF-268
SF-295 = system: SF-295
RXF 393 = system: RXF 393
MOLT-4 = system: MOLT-4
UACC-62 = system: UACC-62
OVCAR-3 = system: OVCAR-3
COLO 205 = system: COLO 205
A498 = system: A498
Malme-3M = system: Malme-3M

OC(c1cc2ccccc2o1)c1cc2ccccc2s1 (configuration not stated)
GI50 (MDA-MB-435): 3.78 µM (inactive)
GI50 (PC-3): 8.57 µM (inactive)
GI50 (NCI/ADR-RES): > 10 µM (inactive)
GI50 (SR): > 10 µM (inactive)
GI50 (HCT-15): > 10 µM
GI50 (OVCAR-5): > 10 µM (inactive)
GI50 (U-251): > 10 µM (inactive)
GI50 (SK-MEL-5): > 10 µM (inactive)
GI50 (HCT-116): > 10 µM (inactive)
GI50 (MDA-MB-231): > 10 µM (inactive)
GI50 (SNB-75): > 10 µM (inactive)
GI50 (DU-145): > 10 µM (inactive)
GI50 (NCI-H460): > 10 µM (inactive)
GI50 (ACHN): > 10 µM (inactive)
GI50 (SNB-19): > 10 µM (inactive)
GI50 (HCC 2998): > 10 µM (inactive)
GI50 (NCI-H226): > 10 µM (inactive)
GI50 (CAKI-1): > 10 µM (inactive)
GI50 (SK-OV-3): > 10 µM (inactive)
GI50 (UO-31): > 10 µM (inactive)
GI50 (IGROV-1): > 10 µM (inactive)
GI50 (SF-539): > 10 µM (inactive)
GI50 (MDA-N): 3.94 µM (inactive)
GI50 (OVCAR-8): > 10 µM (inactive)
GI50 (OVCAR-4): > 10 µM (inactive)
GI50 (UACC-257): > 10 µM (inactive)
GI50 (EKVX): 7.23 µM (inactive)
GI50 (NCI-H23): > 10 µM (inactive)
GI50 (HOP-62): > 10 µM (inactive)
GI50 (HL-60): > 10 µM (inactive)
GI50 (NCI-H522): > 10 µM (inactive)
GI50 (M14): > 10 µM (inactive)
GI50 (LOX IMVI): > 10 µM (inactive)
GI50 (786-0): > 10 µM (inactive)
GI50 (A549): > 10 µM (inactive)
GI50 (SW-620): > 10 µM (inactive)
GI50 (HT-29): > 10 µM (inactive)
GI50 (Hs-578T): 9.53 µM (inactive)
GI50 (SN12C): > 10 µM (inactive)
GI50 (SK-MEL-2): > 10 µM (inactive)
GI50 (TK-10): > 10 µM (inactive)
GI50 (CCRF-CEM): > 10 µM (inactive)
GI50 (KM12): 7.23 µM (inactive)
GI50 (HOP-92): > 10 µM (inactive)
GI50 (MCF7): 9.44 µM (inactive)
GI50 (RPMI-8226): > 10 µM (inactive)
GI50 (K562): 4.57 µM (inactive)
GI50 (SK-MEL-28): > 10 µM (inactive)
GI50 (T47D): > 10 µM (inactive)
GI50 (SF-268): > 10 µM (inactive)
GI50 (SF-295): > 10 µM (inactive)
GI50 (RXF 393): > 10 µM (inactive)
GI50 (MOLT-4): > 10 µM (inactive)
GI50 (UACC-62): > 10 µM (inactive)
GI50 (OVCAR-3): > 10 µM (inactive)
GI50 (COLO 205): > 10 µM (inactive)

CC[C@H](CCCCC1CC[C@@H]2CC(=O)C[C@H]12)OC (some centres not stated)
GI50 (PC-3): > 100 µM (inactive)
GI50 (HCT-15): > 100 µM
GI50 (OVCAR-5): > 100 µM (inactive)
GI50 (U-251): > 100 µM (inactive)
GI50 (DU-145): > 100 µM (inactive)
GI50 (UO-31): 93.8 µM (inactive)
GI50 (MDA-N): > 100 µM (inactive)
GI50 (EKVX): > 100 µM (inactive)
GI50 (A498): > 100 µM (inactive)
GI50 (A549): > 100 µM (inactive)
GI50 (SW-620): > 100 µM (inactive)
GI50 (SN12C): > 100 µM (inactive)
GI50 (MCF7): > 100 µM (inactive)
GI50 (SK-MEL-28): > 100 µM (inactive)
GI50 (SF-268): > 100 µM (inactive)
GI50 (SF-295): > 100 µM (inactive)
GI50 (RXF 393): > 100 µM (inactive)
GI50 (OVCAR-3): > 100 µM (inactive)

O=C(O)c1cccc(NC(C(=O)c2ccccc2)c2ccccc2)c1 (configuration not stated)
GI50 (MDA-MB-435): > 100 µM (inactive)
GI50 (PC-3): > 100 µM (inactive)
GI50 (NCI/ADR-RES): > 100 µM (inactive)
GI50 (SR): > 100 µM (inactive)
GI50 (HCT-15): > 100 µM
GI50 (OVCAR-5): > 100 µM (inactive)
GI50 (U-251): > 100 µM (inactive)
GI50 (SK-MEL-5): > 100 µM (inactive)
GI50 (HCT-116): > 100 µM (inactive)
GI50 (MDA-MB-231): > 100 µM (inactive)
GI50 (DU-145): > 100 µM (inactive)
GI50 (NCI-H460): > 100 µM (inactive)
GI50 (ACHN): > 100 µM (inactive)
GI50 (SNB-19): > 100 µM (inactive)
GI50 (HCC 2998): > 100 µM (inactive)
GI50 (CAKI-1): > 100 µM (inactive)
GI50 (Malme-3M): > 100 µM (inactive)
GI50 (SK-OV-3): > 100 µM (inactive)
GI50 (UO-31): > 100 µM (inactive)
GI50 (IGROV-1): > 100 µM (inactive)
GI50 (SF-539): > 100 µM (inactive)
GI50 (MDA-N): > 100 µM (inactive)
GI50 (OVCAR-8): > 100 µM (inactive)
GI50 (EKVX): > 100 µM (inactive)
GI50 (A498): > 100 µM (inactive)
GI50 (NCI-H23): > 100 µM (inactive)
GI50 (HOP-62): > 100 µM (inactive)
GI50 (HL-60): > 100 µM (inactive)
GI50 (NCI-H522): 78.9 µM (inactive)
GI50 (M14): > 100 µM (inactive)
GI50 (LOX IMVI): > 100 µM (inactive)
GI50 (786-0): > 100 µM (inactive)
GI50 (A549): > 100 µM (inactive)
GI50 (SW-620): > 100 µM (inactive)
GI50 (Hs-578T): 0.714 µM (active)
GI50 (SN12C): > 100 µM (inactive)
GI50 (SK-MEL-2): > 100 µM (inactive)
GI50 (TK-10): > 100 µM (inactive)
GI50 (CCRF-CEM): > 100 µM (inactive)
GI50 (KM12): > 100 µM (inactive)
GI50 (HOP-92): 34 µM (inactive)
GI50 (MCF7): > 100 µM (inactive)
GI50 (RPMI-8226): > 100 µM (inactive)
GI50 (K562): > 100 µM (inactive)
GI50 (SK-MEL-28): > 100 µM (inactive)
GI50 (T47D): > 100 µM (inactive)
GI50 (SF-268): > 100 µM (inactive)
GI50 (SF-295): > 100 µM (inactive)
GI50 (RXF 393): > 100 µM (inactive)
GI50 (MOLT-4): > 100 µM (inactive)
GI50 (UACC-62): > 100 µM (inactive)
GI50 (OVCAR-3): > 100 µM (inactive)
GI50 (COLO 205): > 100 µM (inactive)
